Patent publication US20030087830A1, “Low molecular weight components of cartilage, complexes of metals with amino acids, DI-peptides and analogs thereof; processes for preparation and therapeutic uses thereof” (priority 2001, published 2003)

Experiments:
[1] = tested on: Endothelial cells; test: Endothelial cell migration assay (VEGF, modified Boyden chamber); type: cell-based
Experimental: The endothelial cell migration assay was performed to determine the ability of test samples to inhibit the chemotaxic activity of vascular endothelial growth factor (VEGF;R/D System, MN) using a modified Boyden chamber (Transwell™, Corning/Costar). Briefly, polyvinylidene difluoride filters (PVDF) were coated with Pronectin F (Biosources, CA), a constituent of basement membrane barrier. Boyden chambers were assembled by adding VEGF to the culture media in the lower chamber (chemoattractant). Endothelial cells suspended in cultured media in the presence or the absence of the test samples were added to the upper chamber. The chambers were then incubated for a period of 4.5 hours at 37° C. At the end of the incubation period, the cells from both side of the PVDF membrane were fixed with 3.7% formaldehyde. Cells from the upper surface of the membrane were mechanically removed, and the cells remaining on the underside of the membrane were stained with crystal violet (0.5%; Sigma). Cells were then carefully rinsed and the dye fixed to the cells was quantified with a microplate reader ([…]) after its solubilization with a solution of 50% citric acid (0.1M) in water and 50% ethanol.

[2] = tested on: Lewis lung carcinoma clone M27; test: Lewis Lung Carcinoma metastatic mouse model (LLC); type: in vivo, C57BL/10 female mice; conditions: 2.5 mg/kg, intraperitoneal daily for two weeks; lung surface metastases
Source text: The Lewis Lung Carcinoma mouse model (LLC) was used to determine the ability of different test samples to inhibit the formation of metastases within the lung. The Lewis lung carcinoma clone M27, with a high metastatic potential to the lung, was established by Dr P. Brodt (Brodt P, Characterization of two highly metastatic variants of Lewis lung carcinoma with different organ specificities. Cancer Res., 46: 2442, 1986). This model is well established and is known for its predictive correlation between in vitro and in vivo activity. Briefly, LLC cells were transplanted subcutaneously in the axillary region of the right flank of C57BL/10 female mice (Charles River Inc.) When the primary tumor reached a size of 0.5-1.0 cm^3 (day 10 post-inoculation), the tumor was carefully separated from the surrounding healthy tissues. Treatment with different test samples started the day following tumor removal (day 11 post-inoculation). Saline or different test samples were administered daily for two weeks by intraperitoneal injection (0.2 ml of each dose). As previous experiments had shown that a period of approximately two weeks after removal of the primary tumor was sufficient to obtain an average of 30 to 50 nodules on the lung surface, animals were sacrificed in a CO2 chamber two weeks later. Following autopsy, both lungs were removed, weighed and fixed in 10% Bouin's fixative. Lung surface metastases were counted using a stereomicroscope (4×).

## L-Asp Cu L-Asp [Compound 6]
[1]
  Cell migration activity (in words): important activity
[1]; 1.25 mmole (equivalent copper), VEGF chemoattractant, 4.5 hours
  Migration % of inhibition: 82% of inhibition
[1]; copper complexes, concentration not given, VEGF, 4.5 hours
  Cell Migration (% inhibition): 82%
[2]
  Antimetastatic activity (% inhibition) (at 2.5 mg/kg of Cu-complex): 26.9%
